Read-outs that look alike come from different tables or passages of the source.

This is an account of results in patent US12486280B2, “CDK inhibitors and uses thereof” (California Institute of Technology, priority 2018, dated 2025).

Test [1] relates to drug-resistant cell lines of Table 2 (NCI-H1437, OV207, HCC1806, NCI-H2172). Nature of the test: Cell Line Growth Retardation Assay, resistant cohort. Conditions: geometric mean over resistant cohort, 6 days growth, read-out: AvgResIC50. It counts as cell-based, human. On the procedure: (§1) Cells were seeded at densities of 1,000-5,000 cells per well in 48-well tissue culture plates. After a 24 hours rest period, cells were treated with compound at 10 μM, 2 μM, 0.4 μM, 0.08 μM, 0.016 μM, and 0.0032 μM. A group of cells were treated with the vehicle in which the compound was prepared and served as a control. The cells were grown in the presence of compounds for 6 days and were counted on day 0 and day 6. A11 cell counting was performed using a Synentec Cellavista plate imager. […] Growth inhibition was calculated as a ratio of cell population doublings in the presence of compound versus the absence of compound. […] IC50 values for each compound (see Table 3; reported in μM) were calculated by fitting curves to data points from each dose-response assay using the Proc NLIN function in SAS for Windows version 9.2 (SAS Institute, Inc.).
(§2) These sensitive and resistant cohorts were interrogated for response to each compound, and IC50s were calculated for each cell line using the same technique described above. Average IC50s for the sensitive and resistant cohorts were calculated as geometric means of the group. “Therapeutic Window” for each compound was calculated by dividing the average IC50 for the drug-resistant group by the average IC50 for the drug-sensitive group.

The target in another test is CDK6 (Homo sapiens (Human), UniProt Q00534). Nature of the test: Cdk4 and 6 Enzymatic Inhibition Assay (radiometric 33PanQinase, Ki determination). It counts as biochemical. How it is done:
(§3) 10 distinct concentrations were prepared, with a dilution endpoint of 6×10^−9 M in 100% DMSO. 100% DMSO was used as a control. 10 μL from each of the serial dilutions were aliquoted into separate wells of a 96-well plate and 90 μL of water were added to each of those wells. The plate was shaken thoroughly, and 5 μL from each of the plate's wells were transferred into wells of the assay plate. The final volume of wells in the assay plate was 50 μL. A11 compounds were tested at 10 assay concentrations in the range from 2×10^−6 M to 6×10^−11 M. The final DMSO concentration in the wells of the assay plate was 1% in all cases.
(§4) A radiometric protein kinase assay (33PanQinase® Activity Assay) was used for measuring the kinase activity of six protein kinases. A11 kinase assays were performed in 96-well FlashPlates™ from PerkinElmer (Boston, MA, USA). The assay for all protein kinases contained 70 mM HEPES-NaOH pH 7.5, 3 mM MgCl2, 3 mM MnCl2, 3 μM Na-orthovanadate, 1.2 mM DTT, 50 μg/mL PEG20000, ATP [γ-33P]-ATP (approx. 9×1005 cpm per well), protein kinase and substrate. The reaction cocktails were incubated at 30° C. for 60 minutes. The reaction was stopped with 50 μL of 2% (v/v) H3PO4, and plates were aspirated and washed two times with 200 μL 0.9% (w/v) NaCl. Incorporation of ^33Pi was determined with a microplate scintillation counter (Microbeta, Wallac).

The target of another test is CDK4 (Homo sapiens (Human), UniProt P11802). Described as above. It counts as biochemical. How it is done:
as §3, §4

Test [2] concerns drug-sensitive cell lines of Table 2 (EFM-19, MDA-MB-453, T-47D, ZR-75-1, NCI-H441, OVTOKO, NCI-H1838). Nature of the test: Cell Line Growth Retardation Assay, sensitive cohort. It counts as cell-based, human. Conditions: for IC50: geometric mean over sensitive cohort, 6 days growth, read-out: AvgSensIC50; for Ther Window: average IC50 drug-resistant group divided by average IC50 drug-sensitive group. On the procedure: as §1, §2

Sequence of CDK4 (P11802 whole entry): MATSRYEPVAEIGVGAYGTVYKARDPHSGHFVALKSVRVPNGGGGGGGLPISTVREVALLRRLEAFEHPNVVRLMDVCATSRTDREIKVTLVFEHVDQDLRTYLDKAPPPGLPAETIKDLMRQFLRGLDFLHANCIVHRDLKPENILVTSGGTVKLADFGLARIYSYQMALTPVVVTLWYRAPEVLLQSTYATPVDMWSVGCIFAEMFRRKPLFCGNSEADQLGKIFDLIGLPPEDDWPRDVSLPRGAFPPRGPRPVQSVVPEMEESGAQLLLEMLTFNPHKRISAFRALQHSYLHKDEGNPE
Sequence of CDK4 (P24385 whole entry partner): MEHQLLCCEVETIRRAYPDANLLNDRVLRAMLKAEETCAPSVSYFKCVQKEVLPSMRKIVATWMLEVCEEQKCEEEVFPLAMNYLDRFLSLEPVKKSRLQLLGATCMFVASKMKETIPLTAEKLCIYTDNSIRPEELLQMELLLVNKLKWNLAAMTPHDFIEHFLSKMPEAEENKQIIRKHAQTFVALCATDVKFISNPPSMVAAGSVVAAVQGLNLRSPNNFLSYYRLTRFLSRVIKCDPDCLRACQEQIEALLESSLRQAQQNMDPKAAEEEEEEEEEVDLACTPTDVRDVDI
Sequence of CDK6 (Q00534 whole entry): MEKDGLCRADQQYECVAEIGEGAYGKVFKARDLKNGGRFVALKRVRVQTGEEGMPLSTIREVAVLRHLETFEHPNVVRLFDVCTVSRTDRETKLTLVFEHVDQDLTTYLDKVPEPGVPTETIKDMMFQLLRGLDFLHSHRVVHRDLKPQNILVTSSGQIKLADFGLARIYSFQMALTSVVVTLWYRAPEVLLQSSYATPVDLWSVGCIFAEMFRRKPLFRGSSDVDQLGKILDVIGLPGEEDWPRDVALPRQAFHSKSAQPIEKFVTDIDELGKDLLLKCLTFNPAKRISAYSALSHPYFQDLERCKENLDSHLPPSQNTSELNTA
Sequence of CDK6 (P24385 whole entry partner): as the sequence (P24385 whole entry partner) above

Take `Cc1nc2c(F)cc(-c3nc(Nc4ccc(CN5CCO[C@@](C)(C[C@@H](C)O)C5)cn4)ncc3F)cc2n1C(C)C` (single isomer, unassigned) [Compound A52]: the IC50 in test [1] (Homo sapiens, […]) was 1000 nM; in test [2] (Homo sapiens, […]), 350 nM. In addition, the Ki amounted to 15.4 nM at CDK6 and 3.55 nM at CDK4. The “Ther Window” value in test [2] is on record as 2.82.

For the compound `CCOCC[C@]1(C)CN(Cc2ccc(Nc3ncc(F)c(-c4cc(F)c5nc(C)n(C(C)C)c5c4)n3)nc2)CCO1` [Compound A54], the IC50 in test [1] (Homo sapiens, […]) worked out at 1000 nM; in test [2] (Homo sapiens, […]), 1000 nM. For the same compound, the results for the inhibitory constant (Ki) at CDK6 and at CDK4 were 108 nM and 26.9 nM, respectively. In addition, the “Ther Window” value in test [2] turned out to be 1.00.

`C=CC[C@@]1(C)CN(Cc2ccc(Nc3ncc(F)c(-c4cc(F)c5nc(C)n(C(C)C)c5c4)n3)nc2)CCO1` [Compound A45, (S)—N-(5-((2-allyl-2-methylmorpholino)methyl)pyridin-2-yl)-5-fluoro-4-(4-fluoro-1-isopropyl-2-methyl-1H-benzo[d]imidazol-6-yl)pyrimidin-2-amine]: the IC50 in test [1] (Homo sapiens, […]) worked out at 1000 nM; in test [2] (Homo sapiens, […]) it was 780 nM. Besides, the inhibition constant Ki is 1.43 nM on CDK6 and 3.43 nM on CDK4. The “Ther Window” value in test [2] worked out at 1.29.

`Cc1nc2c(F)cc(-c3nc(Nc4ccc(CN5CCO[C@@]6(CCN(C(=O)OC(C)(C)C)C6)C5)cn4)ncc3F)cc2n1C(C)C` [Compound A41, tert-butyl (S)-9-((6-((5-fluoro-4-(4-fluoro-1-isopropyl-2-methyl-1H-benzo[d]imidazol-6-yl)pyrimidin-2-yl)amino)pyridin-3-yl)methyl)-6-oxa-2,9-diazaspiro[4.5]decane-2-carboxylate]: the Ki was 73.9 nM on CDK6 and 11.3 nM on CDK4.

For `CCCC1(C)CN(Cc2ccc(Nc3ncc(F)c(-c4cc(F)c5nc(C)n(C(C)C)c5c4)n3)nc2)CCO1` (centres unmarked) [Compound A46], the IC50 in test [1] (Homo sapiens, […]) came out at 1000 nM; in test [2] (Homo sapiens, […]), 790 nM. In addition, the Ki at CDK6 stood at 1.95 nM; at CDK4, 5.08 nM. For the same compound, the “Ther Window” value in test [2] worked out at 1.26.

`Cc1nc2c(F)cc(-c3nc(Nc4ccc(CN5CCO[C@](C)(CC(=O)N6CC(F)(F)C6)C5)cn4)ncc3F)cc2n1C(C)C` [Compound A56, (R)-1-(3,3-difluoroazetidin-1-yl)-2-(4-((6-((5-fluoro-4-(4-fluoro-1-isopropyl-2-methyl-1H-benzo[d]imidazol-6-yl)pyrimidin-2-yl)amino)pyridin-3-yl)methyl)-2-methylmorpholin-2-yl)ethan-1-one]: the IC50 in test [1] (Homo sapiens, […]) amounted to 1000 nM; in test [2] (Homo sapiens, […]), 260 nM. Also, the results for the Ki on CDK6 and at CDK4 were 14.8 nM and 2.4 nM, respectively. In addition, in test [2], the “Ther Window” value was 3.76.

As for `CCN1CCN(Cc2ccc(Nc3ncc(F)c(-c4cc(F)c5nc(C)n(C(C)C)c5c4)n3)nc2)CC1` [Abemaciclib FB, Abemaciclib, reference compound], in test [1], the IC50 is 670 nM. For the same compound, in test [2], the “Ther Window” value is 6.73 and the IC50 is 100 nM.

Turning to `Cc1nc2c(F)cc(-c3nc(Nc4ccc(CN5CCO[C@](C)(CC(=O)N6CCC6)C5)cn4)ncc3F)cc2n1C(C)C` [Compound A58, (R)-1-(azetidin-1-yl)-2-(4-((6-((5-fluoro-4-(4-fluoro-1-isopropyl-2-methyl-1H-benzo[d]imidazol-6-yl)pyrimidin-2-yl)amino)pyridin-3-yl)methyl)-2-methylmorpholin-2-yl)ethan-1-one], the IC50 is 1000 nM in test [1] (Homo sapiens, […]) and 340 nM in test [2] (Homo sapiens, […]). For the same compound, the Ki amounted to 19.8 nM on CDK6 and 2.64 nM at CDK4. Also, the “Ther Window” value in test [2] is recorded as 2.94.

In the case of `Cc1nc2c(F)cc(-c3nc(Nc4ccc(CN5CCC56COC6)cn4)ncc3F)cc2n1C(C)C` [Compound A61, N-(5-((6-oxa-1-azaspiro[3.3]heptan-1-yl)methyl)pyridin-2-yl)-5-fluoro-4-(4-fluoro-1-isopropyl-2-methyl-1H-benzo[d]imidazol-6-yl)pyrimidin-2-amine], the IC50 was 940 nM in test [1] (Homo sapiens, […]) and 220 nM in test [2] (Homo sapiens, […]). The values for the inhibition constant Ki on CDK6 and at CDK4 were 9.53 nM and 1.53 nM, respectively. In test [2], the “Ther Window” value was found to be 4.27.

Regarding `Cc1nc2c(F)cc(-c3nc(Nc4ccc(CN5CCOC(C)(CC(C)N(C)C)C5)cn4)ncc3F)cc2n1C(C)C` (centres unmarked) [Compound A24], the IC50 came to 130 nM in test [1] and 40 nM in test [2]. The Ki on CDK6 turned out to be 0.16 nM; at CDK4 it was 0.04 nM. The “Ther Window” value in test [2] stood at 3.02.

In the case of `Cc1nc2c(F)cc(-c3nc(Nc4ccc(CN5CCOC(C)(C)C5)cn4)ncc3F)cc2n1C(C)C` [Compound A48], the IC50 in test [1] (Homo sapiens, […]) stood at 1000 nM; in test [2] (Homo sapiens, […]), 640 nM. The Ki at CDK6 was 1.08 nM; on CDK4 it was 1.77 nM. In addition, the “Ther Window” value in test [2] came to 1.56.

On to `Cc1nc2c(F)cc(-c3nc(Nc4ccc(CN5CCOC(C)(CCN(C)C)C5)cn4)ncc3F)cc2n1C(C)C` (centres unmarked) [Compound A4], for which the IC50 in test [1] (Homo sapiens, […]) is 960 nM; in test [2] (Homo sapiens, […]), 160 nM. For the same compound, the Ki came out at 5.09 nM at CDK6 and 1.16 nM on CDK4. Further, the “Ther Window” value in test [2] turned out to be 5.80.

Take `Cc1nc2c(F)cc(-c3nc(Nc4ccc(CN5CCO[C@@]6(CCNC6)C5)cn4)ncc3F)cc2n1C(C)C` [Compound A34, (R)—N-(5-((6-oxa-2,9-diazaspiro[4.5]decan-9-yl)methyl)pyridin-2-yl)-5-fluoro-4-(4-fluoro-1-isopropyl-2-methyl-1H-benzo[d]imidazol-6-yl)pyrimidin-2-amine]: the IC50 in test [1] (Homo sapiens, […]) was found to be 1000 nM; in test [2] (Homo sapiens, […]), 200 nM. In test [2], the “Ther Window” value worked out at 5.02.

For the compound `Cc1nc2c(F)cc(-c3nc(Nc4ccc(CN5CC6(C5)CC(F)(F)C6)cn4)ncc3F)cc2n1C(C)C` [Compound A64, N-(5-((6,6-difluoro-2-azaspiro[3.3]heptan-2-yl)methyl)pyridin-2-yl)-5-fluoro-4-(4-fluoro-1-isopropyl-2-methyl-1H-benzo[d]imidazol-6-yl)pyrimidin-2-amine], the IC50 in test [1] (Homo sapiens, […]) is 730 nM; in test [2] (Homo sapiens, […]) it was 150 nM. The Ki on CDK6 stood at 4.53 nM; on CDK4, 0.9 nM. The “Ther Window” value in test [2] was found to be 4.87.

Consider `Cc1nc2c(F)cc(-c3nc(Nc4ccc(CN5CC6(CCC6)C5)cn4)ncc3F)cc2n1C(C)C` [Compound A63, N-(5-((2-azaspiro[3.3]heptan-2-yl)methyl)pyridin-2-yl)-5-fluoro-4-(4-fluoro-1-isopropyl-2-methyl-1H-benzo[d]imidazol-6-yl)pyrimidin-2-amine], for which the IC50 in test [1] (Homo sapiens, […]) is 500 nM; in test [2] (Homo sapiens, […]) it was 100 nM. The Ki at CDK6 is 3.14 nM; at CDK4, 0.75 nM. Moreover, the “Ther Window” value in test [2] is on record as 5.03.

Turning to `Cc1nc2c(F)cc(-c3nc(Nc4ccc(CN5CCO[C@@](C)(C[C@H](C)O)C5)cn4)ncc3F)cc2n1C(C)C` (single isomer, unassigned) [Compound A53], the IC50 in test [1] (Homo sapiens, […]) was found to be 1000 nM; in test [2] (Homo sapiens, […]), 210 nM. In addition, the Ki worked out at 11.9 nM on CDK6 and 2.49 nM at CDK4. Besides, the “Ther Window” value in test [2] is listed as 4.85.

As for `Cc1nc2c(F)cc(-c3nc(Nc4ccc(CN5CCOC6(CCOC6)C5)cn4)ncc3F)cc2n1C(C)C` (centres unmarked) [Compound A40], the IC50 in test [1] (Homo sapiens, […]) came to 980 nM; in test [2] (Homo sapiens, […]), 450 nM. Besides, the figures for the inhibition constant Ki on CDK6 and on CDK4 were 7.99 nM and 2.27 nM, respectively. Further, in test [2], the “Ther Window” value came out at 2.18.

With `Cc1nc2c(F)cc(-c3nc(Nc4ccc(CN5CCO[C@]6(CCN(C(=O)OC(C)(C)C)C6)C5)cn4)ncc3F)cc2n1C(C)C` [Compound A42], the Ki on CDK6 was 34.9 nM; on CDK4, 6.47 nM.

In the case of `Cc1nc2c(F)cc(-c3nc(Nc4ccc(CN5CCO[C@]6(CCNC6)C5)cn4)ncc3F)cc2n1C(C)C` [Compound A35], the IC50 in test [1] (Homo sapiens, […]) was 1000 nM; in test [2] (Homo sapiens, […]), 190 nM. The “Ther Window” value in test [2] turned out to be 5.36.

Usually Ki stands for a measure of affinity in units of concentration, obtained from inhibition or displacement.
